For data set [1], the target named is T1, ABCB1 (P-glycoprotein) (Homo sapiens, UniProt P08183). Briefly: TP_TRANSPORTER: inhibition of photolabeling by LU-49888 (LU-49888: 0.1 uM, K02: 10 uM) in membranes from CEM5k cells. It counts as functional, cell membranes, Membrane. As to conditions: probe LU-49888 (0.1 uM).
For data set [2], the target named is ATP-dependent translocase ABCB1 (Homo sapiens, UniProt P08183). The data set can be described thus: TP_TRANSPORTER: transepithelial transport (basal to apical) in MDR1-expressing MDCK cells. It counts as functional, cell-based. As to conditions: dog.
Data set [3] concerns the target T1, ABCB1 (P-glycoprotein). Briefly: TP_TRANSPORTER: inhibition of photolabeling by Azidopine (Azidopine: 0.05 uM, K02: 10 uM) in membranes from CEM5k cells. It counts as functional, cell membranes, Membrane. As to conditions: probe Azidopine (0.05 uM).

SMILES strings stand for the structures.

This note sets out measurements from ChEMBL document CHEMBL2074391, “Overlapping substrate specificities of cytochrome P450 3A and P-glycoprotein for a novel cysteine protease inhibitor” (Drug Metab Dispos, 1998).

T1 sequence (P08183 whole entry): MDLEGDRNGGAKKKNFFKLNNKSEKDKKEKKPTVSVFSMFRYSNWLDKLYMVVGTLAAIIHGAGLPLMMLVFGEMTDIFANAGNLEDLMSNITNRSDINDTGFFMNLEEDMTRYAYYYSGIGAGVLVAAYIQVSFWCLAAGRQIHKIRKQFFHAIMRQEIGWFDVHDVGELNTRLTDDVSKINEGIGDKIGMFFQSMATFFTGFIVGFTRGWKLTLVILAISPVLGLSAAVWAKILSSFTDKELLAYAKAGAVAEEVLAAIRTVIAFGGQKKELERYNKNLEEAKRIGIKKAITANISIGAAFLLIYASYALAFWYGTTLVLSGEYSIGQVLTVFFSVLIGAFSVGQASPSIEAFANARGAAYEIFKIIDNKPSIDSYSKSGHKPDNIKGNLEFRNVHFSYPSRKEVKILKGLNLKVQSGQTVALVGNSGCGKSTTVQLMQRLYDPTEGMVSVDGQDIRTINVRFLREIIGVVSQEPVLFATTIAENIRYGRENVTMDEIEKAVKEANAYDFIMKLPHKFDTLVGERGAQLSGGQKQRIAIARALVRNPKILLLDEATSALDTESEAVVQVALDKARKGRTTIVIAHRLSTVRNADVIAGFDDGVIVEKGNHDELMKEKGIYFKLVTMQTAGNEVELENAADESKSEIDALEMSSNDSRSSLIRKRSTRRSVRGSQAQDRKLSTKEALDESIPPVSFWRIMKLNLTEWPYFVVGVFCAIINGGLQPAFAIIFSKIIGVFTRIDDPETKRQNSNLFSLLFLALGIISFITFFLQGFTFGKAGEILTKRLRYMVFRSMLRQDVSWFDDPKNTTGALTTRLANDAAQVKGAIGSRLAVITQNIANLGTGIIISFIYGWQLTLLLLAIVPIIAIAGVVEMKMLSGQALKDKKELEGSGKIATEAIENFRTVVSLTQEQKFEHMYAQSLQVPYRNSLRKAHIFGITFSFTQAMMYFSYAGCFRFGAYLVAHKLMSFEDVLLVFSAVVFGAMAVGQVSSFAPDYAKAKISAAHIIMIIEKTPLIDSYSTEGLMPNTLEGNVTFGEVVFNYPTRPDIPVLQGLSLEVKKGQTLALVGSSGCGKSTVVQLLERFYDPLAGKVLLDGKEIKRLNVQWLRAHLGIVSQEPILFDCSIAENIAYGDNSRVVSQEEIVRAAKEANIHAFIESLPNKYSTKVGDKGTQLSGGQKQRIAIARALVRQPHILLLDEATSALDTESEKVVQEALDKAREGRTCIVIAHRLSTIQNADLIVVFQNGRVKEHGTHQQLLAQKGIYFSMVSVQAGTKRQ
ATP-dependent translocase ABCB1, sequence (P08183 whole entry): as above

A word on the inhibition: it is the relative decrease from the control value, in per cent. `O=C(N[C@H](/C=C/S(=O)(=O)c1ccccc1)CCc1ccccc1)[C@H](Cc1ccccc1)NC(=O)N1CCOCC1`: the inhibition at 10 µM at ABCB1 (P-glycoprotein) [1] turned out to be 80%; at ABCB1 (P-glycoprotein) [3], 74%. The Activity result in data set [2] was “substrate [+]”.
